In patent US7211572B2 (Japan Tobacco Inc., priority 2003, dated 2007):
pIC50: −log10 of the molar value. Where a name gives a salt, the structure may show the parent alone.

biological target: T1, HIV integrase (Human immunodeficiency virus type 1 group M subtype B, UniProt P12497, F1332H); test: Determination of enzyme (HIV integrase) inhibitory activity; assay type: biochemical; settings: recombinant HIV integrase (F185H), strand transfer ELISA, absorbance at 450 nm
T1 construct: HIV integrase full length gene; made in house; host or cells: Escherichia coli BL21(DE3), plasmid pET21a-INH
How it was run: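 Full-length integrase with F185H, expressed in E. coli and purified, was reacted for 60 min at 37 °C with compound and biotinylated donor DNA bound to streptavidin plates. Target DNA was added for 10 min, then anti-digoxigenin-peroxidase detection at A450; IC50 from % inhibition versus enzyme-free blank.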

Row | SMILES | pIC50
1 | O=c1ccn2ccn(CCCc3c(F)cccc3Cl)c(=O)c2c1O [Example 95, 2-[3-(2-chloro-6-fluorophenyl)propyl]-9-hydroxy-2H-pyrido[1,2-a]pyrazine-1,8-dione hydrochloride] | 7.00 to 8.00
2 | O=c1c(-c2ccccc2)cn2ccn(Cc3cccc(Cl)c3)c(=O)c2c1O [Example 96, 2-(3-chlorobenzyl)-9-hydroxy-7-phenyl-2H-pyrido[1,2-a]pyrazine-1,8-dione hydrochloride] | > 8.00
3 | CN(C)C(=O)c1cn(Cc2cccc(Cl)c2)c(=O)c2c(O)c(=O)ccn12 [Example 97, N,N-dimethyl-2-(3-chlorobenzyl)-9-hydroxy-1,8-dioxo-1,8-dihydro-2H-pyrido[1,2-a]pyrazine-4-carboxamide] | 7.00 to 8.00
4 | O=C(O)c1cn(Cc2cccc(Cl)c2)c(=O)c2c(O)c(=O)ccn12 [Example 98, 2-(3-chlorobenzyl)-9-hydroxy-1,8-dioxo-1,8-dihydro-2H-pyrido[1,2-a]pyrazine-4-carboxylic acid] | 7.00 to 8.00
5 | O=c1c(O)c2c(=O)n(Cc3cccc(Cl)c3)ccn2c2ccccc12 [Example 99, 3-(3-chlorobenzyl)-5-hydroxy-3H-pyrazino[1,2-a]quinoline-4,6-dione hydrochloride] | 7.00 to 8.00
6 | O=c1ncn2ccn(Cc3cccc(Cl)c3)c(=O)c2c1O [Example 100, 2-(3-chlorobenzyl)-9-hydroxy-2H-pyrazino[1,2-c]pyrimidine-1,8-dione hydrochloride] | 7.00 to 8.00
7 | O=Cc1cn(Cc2cccc(Cl)c2)c(=O)c2c(O)c(=O)ccn12 [Example 101, 2-(3-chlorobenzyl)-9-hydroxy-1,8-dioxo-1,8-dihydro-2H-pyrido[1,2-a]pyrazine-4-carbaldehyde] | 7.00 to 8.00
8 | O=c1ccn2c(CO)cn(Cc3cccc(Cl)c3)c(=O)c2c1O [Example 102, 2-(3-chlorobenzyl)-9-hydroxy-4-hydroxymethyl-2H-pyrido[1,2-a]pyrazine-1,8-dione] | 7.00 to 8.00
9 | CC(O)c1cn(Cc2cccc(Cl)c2)c(=O)c2c(O)c(=O)ccn12 (centres unmarked) [Example 103, 2-(3-chlorobenzyl)-9-hydroxy-4-(1-hydroxyethyl)-2H-pyrido[1,2-a]pyrazine-1,8-dione] | 7.00 to 8.00
10 | CC(C)c1cn2ccn(Cc3cccc(Cl)c3)c(=O)c2c(O)c1=O [Example 104, 2-(3-chlorobenzyl)-9-hydroxy-7-isopropyl-2H-pyrido[1,2-a]pyrazine-1,8-dione hydrochloride] | 7.00 to 8.00
11 | CC(=O)c1cn(Cc2cccc(Cl)c2)c(=O)c2c(O)c(=O)ccn12 [Example 105, 4-acetyl-2-(3-chlorobenzyl)-9-hydroxy-2H-pyrido[1,2-a]pyrazine-1,8-dione] | 7.00 to 8.00
12 | Cn1cc2c(c(O)c1=O)C(=O)N(Cc1cccc(Cl)c1)CC2 [Example 106, 2-(3-chlorobenzyl)-8-hydroxy-6-methyl-2,3,4,6-tetrahydro-2,6-naphthyridine-1,7-dione] | 7.00 to 8.00
13 | N#Cc1cn(Cc2cccc(Cl)c2)c(=O)c2c(O)c(=O)ccn12 [Example 107, 2-(3-chlorobenzyl)-9-hydroxy-1,8-dioxo-1,8-dihydro-2H-pyrido[1,2-a]pyrazine-4-carbonitrile] | 7.00 to 8.00
14 | O=C1c2c(O)c(=O)ncn2CCN1Cc1cccc(Cl)c1 [Example 108, 2-(3-chlorobenzyl)-9-hydroxy-3,4-dihydro-2H-pyrazino[1,2-c]pyrimidine-1,8-dione] | 7.00 to 8.00
15 | CS(=O)(=O)Oc1c(=O)c(Br)cn2ccn(Cc3cccc(Cl)c3)c(=O)c12 [Example 109, 7-bromo-2-(3-chlorobenzyl)-1,8-dioxo-1,8-dihydro-2H-pyrido[1,2-a]pyrazin-9-yl methanesulfonate] | 6.00 to 7.00
16 | O=C1c2c(O)c(=O)c(Br)cn2CC(O)N1Cc1cccc(Cl)c1 (centres unmarked) [Example 110, 7-bromo-2-(3-chlorobenzyl)-3,9-dihydroxy-3,4-dihydro-2H-pyrido[1,2-a]pyrazine-1,8-dione hydrochloride] | 6.00 to 7.00
17 | O=C1c2c(O)c(=O)c3ccccc3n2CCN1Cc1cccc(Cl)c1 [Example 111, 3-(3-chlorobenzyl)-5-hydroxy-2,3-dihydro-1H-pyrazino[1,2-a]quinoline-4,6-dione] | 7.00 to 8.00
18 | O=c1c(-c2cccc(Cl)c2)cn2ccn(Cc3cccc(Cl)c3)c(=O)c2c1O [Example 112, 2-(3-chlorobenzyl)-7-(3-chlorophenyl)-9-hydroxy-2H-pyrido[1,2-a]pyrazine-1,8-dione hydrochloride] | 7.00 to 8.00
19 | O=c1c(-c2ccc(Cl)cc2)cn2ccn(Cc3cccc(Cl)c3)c(=O)c2c1O [Example 113, 2-(3-chlorobenzyl)-7-(4-chlorophenyl)-9-hydroxy-2H-pyrido[1,2-a]pyrazine-1,8-dione hydrochloride] | 7.00 to 8.00

Row | SMILES | pIC50
20 | O=c1c(-c2ccccc2Cl)cn2ccn(Cc3cccc(Cl)c3)c(=O)c2c1O [Example 114, 2-(3-chlorobenzyl)-7-(2-chlorophenyl)-9-hydroxy-2H-pyrido[1,2-a]pyrazine-1,8-dione hydrochloride] | > 8.00
21 | O=c1c(-c2cccnc2)cn2ccn(Cc3cccc(Cl)c3)c(=O)c2c1O [Example 115, 2-(3-chlorobenzyl)-9-hydroxy-7-(pyridin-3-yl)-2H-pyrido[1,2-a]pyrazine-1,8-dione hydrochloride] | > 8.00
22 | O=c1c(-c2ccncc2)cn2ccn(Cc3cccc(Cl)c3)c(=O)c2c1O [Example 116, 2-(3-chlorobenzyl)-9-hydroxy-7-(pyridin-4-yl)-2H-pyrido[1,2-a]pyrazine-1,8-dione hydrochloride] | > 8.00
23 | O=c1c(-c2ccccn2)cn2ccn(Cc3cccc(Cl)c3)c(=O)c2c1O [Example 117, 2-(3-chlorobenzyl)-9-hydroxy-7-(pyridin-2-yl)-2H-pyrido[1,2-a]pyrazine-1,8-dione hydrochloride] | > 8.00
24 | CC(C)(C)C(O)c1cn2ccn(Cc3cccc(Cl)c3)c(=O)c2c(O)c1=O (centres unmarked) [Example 118, 2-(3-chlorobenzyl)-9-hydroxy-7-(1-hydroxy-2,2-dimethylpropyl)-2H-pyrido[1,2-a]pyrazine-1,8-dione hydrochloride] | 7.00 to 8.00
25 | O=c1c(-c2ccccc2)cn2c(CC3CCCCC3)cn(Cc3cccc(Cl)c3)c(=O)c2c1O [Example 119, 2-(3-chlorobenzyl)-4-cyclohexylmethyl-9-hydroxy-7-phenyl-2H-pyrido[1,2-a]pyrazine-1,8-dione hydrochloride] | 6.00 to 7.00
26 | O=c1c(-c2ccco2)cn2ccn(Cc3cccc(Cl)c3)c(=O)c2c1O [Example 120, 2-(3-chlorobenzyl)-7-(furan-2-yl)-9-hydroxy-2H-pyrido[1,2-a]pyrazine-1,8-dione hydrochloride] | > 8.00
27 | Cn1cc2c(c(O)c1=O)C(=O)N(Cc1ccc(Cl)c(Cl)c1)CC2 [Example 121, 2-(3,4-dichlorobenzyl)-8-hydroxy-6-methyl-2,3,4,6-tetrahydro-2,6-naphthyridine-1,7-dione] | > 8.00
28 | Cn1cc2c(c(O)c1=O)C(=O)N(CCCc1c(F)cccc1Cl)CC2 [Example 122, 2-[3-(2-chloro-6-fluorophenyl)propyl]-8-hydroxy-6-methyl-2,3,4,6-tetrahydro-2,6-naphthyridine-1,7-dione] | > 8.00
29 | Cn1nc2c(c(O)c1=O)C(=O)N(Cc1cccc(Cl)c1)CC2 [Example 123, 6-(3-chlorobenzyl)-4-hydroxy-2-methyl-2,6,7,8-tetrahydropyrido[4,3-c]pyridazine-3,5-dione] | 6.00 to 7.00
30 | O=c1c(-c2cc3ccccc3o2)cn2ccn(Cc3cccc(Cl)c3)c(=O)c2c1O [Example 124, 7-(benzofuran-2-yl)-2-(3-chlorobenzyl)-9-hydroxy-2H-pyrido[1,2-a]pyrazine-1,8-dione hydrochloride] | 7.00 to 8.00
31 | CC(C)(C)C(=O)c1cn2ccn(Cc3cccc(Cl)c3)c(=O)c2c(O)c1=O [Example 125, 2-(3-chlorobenzyl)-7-(2,2-dimethylpropionyl)-9-hydroxy-2H-pyrido[1,2-a]pyrazine-1,8-dione hydrochloride] | > 8.00
32 | CC(C)(C)Cc1cn2ccn(Cc3cccc(Cl)c3)c(=O)c2c(O)c1=O [Example 126, 2-(3-chlorobenzyl)-7-(2,2-dimethylpropyl)-9-hydroxy-2H-pyrido[1,2-a]pyrazine-1,8-dione hydrochloride] | 7.00 to 8.00
33 | O=c1c(-c2ccccc2C(F)(F)F)cn2ccn(Cc3cccc(Cl)c3)c(=O)c2c1O [Example 127, 2-(3-chlorobenzyl)-9-hydroxy-7-(2-trifluoromethylphenyl)-2H-pyrido[1,2-a]pyrazine-1,8-dione hydrochloride] | > 8.00
34 | COc1cccc(-c2cn3ccn(Cc4cccc(Cl)c4)c(=O)c3c(O)c2=O)c1 [Example 128, 2-(3-chlorobenzyl)-9-hydroxy-7-(3-methoxyphenyl)-2H-pyrido[1,2-a]pyrazine-1,8-dione hydrochloride] | 7.00 to 8.00
35 | CC(C)c1cn(Cc2cccc(Cl)c2)c(=O)c2c(O)c(=O)c(Br)cn12 [Example 129, 7-bromo-2-(3-chlorobenzyl)-9-hydroxy-4-isopropyl-2H-pyrido[1,2-a]pyrazine-1,8-dione hydrochloride] | 7.00 to 8.00
36 | O=c1c(-c2ccccc2F)cn2ccn(Cc3cccc(Cl)c3)c(=O)c2c1O [Example 130, 2-(3-chlorobenzyl)-7-(2-fluorophenyl)-9-hydroxy-2H-pyrido[1,2-a]pyrazine-1,8-dione hydrochloride] | > 8.00
37 | CC(C)c1cn(Cc2cccc(Cl)c2)c(=O)c2c(O)c(=O)c(-c3ccccc3)cn12 [Example 131, 2-(3-chlorobenzyl)-9-hydroxy-4-isopropyl-7-phenyl-2H-pyrido[1,2-a]pyrazine-1,8-dione hydrochloride] | 7.00 to 8.00
38 | COc1ccccc1-c1cn2ccn(Cc3cccc(Cl)c3)c(=O)c2c(O)c1=O [Example 132, 2-(3-chlorobenzyl)-9-hydroxy-7-(2-methoxyphenyl)-2H-pyrido[1,2-a]pyrazine-1,8-dione hydrochloride] | 7.00 to 8.00
